Reference: the SangsterLogP compilation

Experiment: method code SF-HPLC, from DOI: 10.1080/01483919108049310
Conditions: pH 8.5

**Q.** With `Cc1nn(-c2ccccc2)c(Nc2ccc(C(F)(F)F)cc2)c1[N+](=O)[O-]` as the molecule, how does the logD read?
**A.** 3.89

**Q.** Which logD does the source give for `Cc1ccc(Nc2c([N+](=O)[O-])c(C)nn2-c2ccccc2)cc1` here?
**A.** 3.43

**Q.** For `Cc1nn(-c2ccccc2)c(Nc2ccc(Cl)cn2)c1[N+](=O)[O-]`, which logD is on record?
**A.** 3.74

**Q.** With `Cc1nn(-c2ccccc2)c(NN=Cc2ccc3c(c2[N+](=O)[O-])OCO3)c1[N+](=O)[O-]` as the molecule, how does the logD read?
**A.** 3.39

**Q.** Which logD does the source give for `Cc1cccc(Nc2c([N+](=O)[O-])c(C)nn2-c2ccccc2)c1` here?
**A.** 3.25

**Q.** Which logD does the source give for `Cc1ccccc1Nc1c([N+](=O)[O-])c(C)nn1-c1ccccc1` here?
**A.** 3.8

**Q.** With `Cc1nn(-c2ccccc2)c(Nc2ccc([N+](=O)[O-])cc2)c1[N+](=O)[O-]` as the molecule, how does the logD read?
**A.** 2.78

**Q.** Which logD does the source give for `Cc1nn(-c2ccccc2)c(Nc2ccccc2)c1[N+](=O)[O-]` here?
**A.** 2.98
